# Key:
# [1] = system: bladder overactivity induced by 0.25% acetic acid (AA) irritation; settings: 0.5168 mg/kg dose alone (references 20, 31, 36); cited from earlier work
# [2] = system: bladder overactivity induced by 0.25% acetic acid (AA) irritation; experiment: Cystometrogram (CMG) bladder capacity during 0.25% acetic acid (AA) infusion in anesthetized cats, duloxetine / WAY100635 with and without foot stimulation; assay type: in vivo, cat
# Method: Experiments were performed in a total of 8 adult anesthetized cats (5 female and 3 male cats between 3.1-4.4 kg). Each cat was anesthetized with isoflurane (2-3% in O2) during surgery and then changed to α-chloralose (65 mg/kg, supplemented as necessary) anesthesia during data collection. A pulse oximeter (9847V, Nonin Medical Inc., Plymouth, MN, USA) with the sensor attached to the tongue was used to monitor heart rate and blood oxygen saturation. Catheters were inserted in the right cephalic vein and right carotid artery for intravenous infusion of drugs and monitoring systemic blood pressure, respectively. Airway access was secured with a tracheostomy tube. Ureters were accessed through a midline abdominal incision and drained externally. The bladder was then cannulated with a double lumen catheter through a small cut at the proximal urethra to infuse saline or 0.25% AA and simultaneously measure bladder pressure. The proximal urethra was tied to prevent leakage. Fur was removed from the right hind foot and two self-adhesive pad electrodes (Grass FE10ND, Astro-Medical Inc., Mentor, OH, USA; diameter 1 cm) were attached to the skin at the bottom of the foot. One electrode was at the front of the foot and the other was at the heel (Chen G et al. Post-stimulation inhibitory effect on reflex bladder activity induced by activation of somatic afferent nerves in the foot. J Urol 187: 338-343, 2012; Tai C et al. Suppression of bladder overactivity by activation of somatic afferent nerves in the foot. BJU Int 107: 303-309, 2011).
# Uniphasic rectangular pulses (5 Hz frequency, 0.2 ms pulsewidth) were delivered to the surface electrodes on the foot. Stimulation intensity threshold (T) was defined as the minimal intensity to induce a toe twitch. […] BJU Int 107: 303-309, 2011). Initially the bladder capacity was determined during cystometrograms (CMGs) by slowly infusing the bladder with saline. Multiple CMGs were performed to ensure reproducibility of the saline control capacity.
# Bladder capacity was defined as the bladder volume threshold required to induce a micturition contraction of large amplitude (>30 cm H2O) and long duration (>20 seconds). Then, repeated CMGs were performed with infusion of 0.25% AA to irritate the bladder, activate nociceptive bladder afferent C-fibers, and induce bladder overactivity. When the bladder capacity stabilized, four CMGs were performed with AA infusion (Infusion rate=2 mL/min) prior to the administration of duloxetine: (1) control without stimulation, (2) during 2 T stimulation, (3) during 4 T stimulation, and (4) control without stimulation to determine any post-stimulation effect. The bladder was emptied at the end of each CMG and a 3-5 minute rest period was inserted between CMGs.
# After the pre-drug CMGs were performed, increasing cumulative doses (0.003, 0.01, 0.03, 0.1, 0.3, 1, and 3 mg/kg, i.v.) of duloxetine (Selleck Chemicals, Houston, TX) were given to determine the drug effect on bladder capacity. Ten minutes after administering each dose of duloxetine, the four CMGs were again performed with AA infusion under different conditions (control, 2 T stimulation, 4 T stimulation, and post-stimulation control). The four repeated CMGs were completed within 40-60 minutes. In 4 cats 50-70 minutes after giving the maximal dose of duloxetine (3 mg/kg), WAY100635 (Sigma-Aldrich, St. Louis, MO), a 5HT1A antagonist, was administered (0.5 mg/kg, i.v.) to block 5HT1A inhibitory autoreceptors on serotonergic neurons in the raphe nucleus in an attempt to enhance the serotonergic inhibitory influence of duloxetine on bladder reflexes. Five minutes after administration of WAY100635, we performed control CMGs without stimulation to examine the combined effect of WAY100635 and duloxetine on bladder capacity.
# For each CMG, bladder capacity was normalized to the initial saline control capacity in the same animal, which allowed for comparisons between animals.
# [3] = system: bladder overactivity induced by 0.25% acetic acid (AA) irritation; experiment: Cystometrogram (CMG) bladder capacity during 0.25% acetic acid (AA) infusion in anesthetized cats, tolterodine with and without foot stimulation; assay type: in vivo, cat; settings: for bladder capacity: AA infusion
# Method: Experiments were conducted in a total of 6 adult cats (4 female and 2 male cats between 2.8-3.8 kg) under achloralose anesthesia (65 mg/kg, supplemented as necessary) after induction with isoflurane (2-3% in O2). Heart rate and blood oxygen level were monitored with a pulse oximeter (9847 V, Nonin Medical Inc., Plymouth, MN, USA) that was attached to the tongue. Systemic blood pressure was monitored via a catheter in the right carotid artery. These physiological parameters were monitored to ensure that the animal's vital functions remained relatively stable during the entire experiment. Drugs or fluids were administered through a catheter in the right cephalic vein and airway access was secured with a tracheostomy tube. Ureters were accessed through a midline abdominal incision and drained externally. The bladder was cannulated through the urethra with a double lumen catheter to infuse (1-2 ml/min) saline or 0.25% acetic acid (AA) via one lumen and measure bladder pressure via another lumen. A ligature was tied around the proximal urethra to prevent leakage. Fur was removed from the foot and two self-adhesive pad electrode (Grass FE10ND, Astro-Medical Inc., Mentor, OH, USA; diameter 1 cm) were attached to the skin at the bottom of the left hind foot. One electrode was at the front of the foot and the other was at the heel.
# Uniphasic rectangular pulses (5 Hz frequency, 0.2 ms pulsewidth) were delivered to the skin electrodes on the foot. Threshold (T) stimulation intensity (3-16 V), which was defined as the minimal intensity to induce an observable toe twitch, was determined by slowly increasing the stimulation intensity at the beginning of the experiment. […] The initial bladder capacity was determined during a cystometrogram (CMG) by slowly infusing the bladder with saline. Bladder capacity was defined as the bladder volume threshold to induce a bladder reflex contraction of large amplitude (>30 cm H2O) and long duration (>20 seconds).
# Multiple CMGs were performed to determine reproducibility of the saline control capacity. Then, repeated CMGs were performed with AA infusion to irritate the bladder, activate nociceptive bladder C-fiber afferents, and induce bladder overactivity. Once the irritated bladder capacity was stabilized, four CMGs were performed prior to drug administration: 1. control CMG without stimulation; 2. CMG during 2 T stimulation; 3. CMG during 4 T stimulation; and 4. control CMG without stimulation to determine any post-stimulation effect. Increasing cumulative doses of tolterodine (tolterodine L-tartrate, Tocris Bioscience, Bristol, UK) were then administered (0.003, 0.01, 0.03, 0.1, and 0.3 mg/kg, i.v.). Ten minutes after administering each dose of tolterodine, the CMGs were performed again under the four different conditions (control, 2 T stimulation, 4 T stimulation, and post-stimulation control) to determine the drug effect on bladder capacity. The bladder was emptied after each CMG followed by a 3-5 min rest period to allow the distended detrusor to recover.
# For the repeated CMG recordings, bladder capacity was normalized to the initial saline control capacity in the same animal to allow comparisons between animals. Capacity measurements under the same conditions were averaged and reported as mean±standard error of the mean (SEM). The mean amplitude of the bladder reflex contraction was also measured during each CMG and normalized to the AA control CMG to determine the effect of tolterodine on detrusor contractility. Statistical significance (p<0.05) was detected by ANOVA followed by Dunnett or Bonferroni post-tests.
smiles,measurement,setting,value
COc1ccccc1N1CCN(CCN(C(=O)C2CCCCC2)c2ccccn2)CC1 [WAY100635],effect of WAY100635 alone on bladder capacity,[1],does not affect bladder capacity
same,bladder capacity,"[2]; WAY100635 0.5168 mg/kg i.v. after final 3 mg/kg dose of duloxetine, no stimulation, N=4 cats, p=0.008",162.2±22.5 % of saline control
Cc1ccc(O)c([C@H](CCN(C(C)C)C(C)C)c2ccccc2)c1 [tolterodine],effect on control bladder capacity,"[3]; 0.1 mg/kg i.v., absence of stimulation",not effective in significantly increasing control bladder capacity
same,amplitude of bladder reflex contractions,"[3]; 0.003-0.3 mg/kg i.v., control, 2 T or 4 T foot stimulation CMGs",did not alter the amplitude of bladder reflex contractions
same,total inhibitory effect of tolterodine combined with foot stimulation,"[3]; 2 T and 4 T foot stimulation, every dosage",additive
same,post-stimulation effect on bladder capacity,"[3]; after 2 T and 4 T stimulation, every dose of tolterodine",no post-stimulation effect was observed
same,effect on bladder capacity during AA infusion CMGs,"[3]; cumulative doses 0.003-0.3 mg/kg i.v., absence of foot stimulation",increased bladder capacity dose dependently
same,bladder capacity,"[3]; tolterodine 0.1 mg/kg i.v., 4 T foot stimulation",97.0±11.2 % of saline control
same,bladder capacity,"[3]; tolterodine 0.3 mg/kg i.v. (cumulative), absence of foot stimulation, N=6 cats",65.6±15.5 % of the saline control capacity
same,bladder capacity,"[3]; tolterodine 0.3 mg/kg i.v., 2 T foot stimulation",86.2±6.2 % of the saline control
same,bladder capacity,"[3]; tolterodine 0.3 mg/kg i.v., 4 T foot stimulation",107.9±10.6 % of the saline control
same,threshold pressure for inducing a micturition reflex,"[3]; tolterodine 0.3 mg/kg i.v., 5.0±1.3 cm H2O before treatment",8.1±1.4 cm H2O
CNCC[C@H](Oc1cccc2ccccc12)c1cccs1 [duloxetine],effect on AA-induced overactivity,"[2]; 3 mg/kg i.v., absence of stimulation",completely removed AA-induced overactivity
same,post-stimulation effect on bladder capacity,[2]; after 2 T and 4 T stimulation in duloxetine treated animals,absence of a post-stimulation effect
same,effect of foot stimulation on capacity when combined with duloxetine,[2]; after doses 0.003 mg/kg to 0.03 mg/kg i.v.,significantly (p<0.05) increased capacity
same,effect of foot stimulation on capacity when combined with duloxetine,[2]; after doses between 0.1 mg/kg and 3 mg/kg i.v.,did not significantly increase capacity
same,bladder capacity,"[2]; after final 3 mg/kg dose of duloxetine, before WAY100635, no stimulation, N=4 cats",117.3±17.6 % of saline control
same,effect on bladder capacity during AA infusion,"[2]; doses 0.1-3 mg/kg i.v., absence of stimulation",dose-dependently and significantly (p<0.05) increased bladder capacity
same,bladder capacity,"[2]; duloxetine 3 mg/kg i.v. (cumulative), AA infusion, absence of stimulation, N=8 cats",109±15.5 % of saline control
same,bladder capacity,"[2]; duloxetine 3 mg/kg i.v., AA infusion, during 2 T foot stimulation (5 Hz, 0.2 ms)",129.3±23.2 % of saline control
same,bladder capacity,"[2]; duloxetine 3 mg/kg i.v., AA infusion, during 4 T foot stimulation (5 Hz, 0.2 ms)",129.2±25.8 % of saline control
